Entries after “also recorded” stand apart in the source; their conditions may differ. Bridge positions count the residues as written; N and C are the ends. Square brackets hold non-standard residues; d marks the D form. Triazole bridges read from a SMILES are 1,4-linked. Peptide text beside a SMILES is read from it. * marks the point of attachment. ξ: configuration not given here. Biotinyl(3aR,4R,6aS) = O=C1N[C@@H]2[C@@H](CS[C@@H]2CCCCC(=O)*)N1; Lys(N3) = [N-]=[N+]=NCCCC[C@H](N)C(=O)O; dThr(3ξ) = CC(O)[C@@H](N)C(=O)O; Thr(3ξ) = CC(O)[C@H](N)C(=O)O; AEEEA = NCCOCCOCCOCC(=O)O; Pra = C#CC[C@H](N)C(=O)O
Columns and labels:
[1] = target: T1, full-length His-tagged IL-17F protein (Homo sapiens, UniProt Q96PD4); test: Sandwich ELISA: IL-17F captured by ligand immobilized on NeutrAvidin plate; type: binding; settings: IL-17F; for binding affinity compared, in words: sandwich ELISA
T1 construct: Full-length His-tagged IL-17F protein (ab167911, Abcam) was serially diluted in Wash Buffer; purchased Abcam ab167911
T1 sequence (Q96PD4 31-163): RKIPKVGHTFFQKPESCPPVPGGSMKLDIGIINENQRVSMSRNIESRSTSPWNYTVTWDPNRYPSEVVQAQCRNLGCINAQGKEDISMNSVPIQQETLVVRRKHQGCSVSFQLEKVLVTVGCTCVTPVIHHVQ
Experimental: Sandwich ELISA. A black 96-well NeutrAvidin Coated High Binding Capacity plate (15510, Pierce) was coated with 2 μM macrocyclic peptide ligand in TBS (25 mM Tris-HCl, 150 mM NaCl, pH 7.6) for 2 h at room temperature. Biotinylated monoclonal anti-IL17F (TA319597, Origene) was coated at 4 μg/mL in TBS as a control. The plate was aspirated and then washed with TBS (5×) and Wash Buffer (0.05% (v/v) Tween-20 in PBS, 1×). Full-length His-tagged IL-17F protein (ab167911, Abcam) was serially diluted in Wash Buffer (from 800 to 0 nM) and incubated in the designated microwells for 90 min at room temperature. Microwells were aspirated and subsequently washed with Wash Buffer (10×). To detect the bound IL-17F protein, Alkaline Phosphatase (AP)-conjugated Anti-6X His tag® antibody [HIS-1] (ab49746, Abcam) was prepared at 1:10,000 dilution and added to the microwells for 1 h at room temperature. The plate was aspirated and washed with Wash Buffer (11×). AttoPhos® AP Fluorescent Substrate System (S1000, Promega) was employed to develop the microwells. Using an excitation wavelength of 430 nm, fluorescent emission at 535 nm was recorded by Beckman Coulter DTX880 photometer. Titration curves were fit using a four-parameter regression curve fitting program (Origin 8.5) to determine EC50 values.
(§1) For these assays, a dilution series of full-length His-tagged IL-17F protein was captured using the macrocyclic peptide ligands immobilized on a NeutrAvidin-coated plate.
Sandwich ELISA. These assays were performed using the same protocol that was used to evaluate the IL-17F Epitope1 targeted ligands.
as §1

[2] = test system: trypsin; test: Trypsin protease digestion, analytical HPLC; type: in vitro ADME; settings: trypsin 1 h at 37° C., analytical HPLC at 215 nm
Experimental: Bi-LF Biotin-PEG3-Cy(RSYNKX1X2) (SEQ ID NO:102)-PEG3-Cy(RRATSX1X2) (SEQ ID NO:83) (X1=azidolysine and X2=propargylglycine) was incubated with trypsin to study its susceptibility to protease digestion. Trypsin can cleave peptides and proteins on the C-terminal side of lysine and arginine L-amino acids. For this assay, test compounds were treated with trypsin protease (1 h at 37° C.) or left untreated as a control. In an Eppendorf tube, 4 μL of trypsin solution (10 μg/mL in 1 mM HCl) and 80 pmol of biligand were added to TBS for a final volume of 20 μL. The solution was incubated for 1 h at 37° C., and then further diluted with 80 μL TBS. 50 μL of each sample was injected into a Dionex Ultimate 3000 series analytical HPLC fitted with a Phenomenex Luna-C18 column, and eluted with a gradient of 10%-62% acetonitrile in 0.1% TFA (v/v) in water over 45 min. The samples were monitored at 215 nm.

[3] = target: T2, IL-17F protein (Homo sapiens, UniProt Q96PD4); test: IL-17F binding in a background of human serum, surface-immobilized ligand
T2 construct: His tag
T2 sequence (Q96PD4 31-163): T1 sequence (Q96PD4 31-163)
Excerpt: Binding to IL-17F in 25% (v/v) serum is also detectable.
Target binding in biologically complex samples was interrogated by contacting surface-immobilized macrocycles with IL-17F protein in a background of human serum.

binding affinity compared, in words [1]	susceptibility to trypsin digestion [2]	bivalent interaction stronger than the other biligands [1]	improvement in affinity relative to the individual PCC macrocyclic ligands [1] [fold]	binding to IL-17F in human serum ([3]; 25% (v/v) serum)	IL-17F binding efficiency in human serum ([3]; up to 10% (v/v) serum)	SMILES
slightly weaker binding	resistant to trypsin digestion	–	–	–	–	CC(O)[C@@H]1NC(=O)[C@H](C)NC(=O)[C@@H](CCCNC(=N)N)NC(=O)[C@@H](CCCNC(=N)N)NC(=O)[C@@H](NC(=O)COCCOCCOCCNC(=O)[C@@H]2CCCCn3cc(nn3)C[C@H](NC(=O)COCCOCCOCCNC(=O)CCCC[C@H]3SC[C@H]4NC(=O)N[C@H]43)C(=O)N[C@H](CCCNC(=N)N)C(=O)N[C@@H](CO)C(=O)N[C@@H](Cc3ccc(O)cc3)C(=O)N[C@@H](CC(N)=O)C(=O)N[C@H](CCCCN)C(=O)N2)Cc2cn(nn2)CCCC[C@@H](C(N)=O)NC(=O)[C@H](CO)NC1=O (stereo partly drawn) [Bi-LS, Biotin-PEG3-Cy(rSYNkX1X2)-PEG3-Cy(rrATSX1X2)] ({Biotinyl(3aR,4R,6aS)-AEEEA}-[Pra][dR]SYN[dK][Lys(N3)][AEEEA][Pra][dR][dR]A[Thr(3ξ)]S[Lys(N3)]-NH2; triazole 1-7, 9-15)
–	trypsin digestion indeed occurred	at least 16 times	> 100	detectable	no reduction in binding efficiency	CC(O)[C@@H]1NC(=O)[C@H](C)NC(=O)[C@H](CCCNC(=N)N)NC(=O)[C@H](CCCNC(=N)N)NC(=O)[C@@H](NC(=O)COCCOCCOCCNC(=O)[C@@H]2CCCCn3cc(nn3)C[C@H](NC(=O)COCCOCCOCCNC(=O)CCCC[C@H]3SC[C@H]4NC(=O)N[C@H]43)C(=O)N[C@@H](CCCNC(=N)N)C(=O)N[C@@H](CO)C(=O)N[C@@H](Cc3ccc(O)cc3)C(=O)N[C@@H](CC(N)=O)C(=O)N[C@@H](CCCCN)C(=O)N2)Cc2cn(nn2)CCCC[C@@H](C(N)=O)NC(=O)[C@H](CO)NC1=O (stereo partly drawn) [Biotin-PEG3-Cy(RSYNKX1X2)-PEG3-Cy(RRATSX1X2)] ({Biotinyl(3aR,4R,6aS)-AEEEA}-[Pra]RSYNK[Lys(N3)][AEEEA][Pra]RRA[Thr(3ξ)]S[Lys(N3)]-NH2; triazole 1-7, 9-15)

SMILES	binding affinity compared, in words [1]	susceptibility to trypsin digestion [2]	bivalent interaction stronger than the other biligands [1]	improvement in affinity relative to the individual PCC macrocyclic ligands [1] [fold]	binding to IL-17F in human serum ([3]; 25% (v/v) serum)	IL-17F binding efficiency in human serum ([3]; up to 10% (v/v) serum)
CC(O)[C@H]1NC(=O)[C@@H](C)NC(=O)[C@@H](CCCNC(=N)N)NC(=O)[C@@H](CCCNC(=N)N)NC(=O)[C@@H](NC(=O)COCCOCCOCCNC(=O)[C@@H]2CCCCn3cc(nn3)C[C@H](NC(=O)COCCOCCOCCNC(=O)CCCC[C@H]3SC[C@H]4NC(=O)N[C@H]43)C(=O)N[C@H](CCCNC(=N)N)C(=O)N[C@H](CO)C(=O)N[C@H](Cc3ccc(O)cc3)C(=O)N[C@H](CC(N)=O)C(=O)N[C@H](CCCCN)C(=O)N2)Cc2cn(nn2)CCCC[C@@H](C(N)=O)NC(=O)[C@@H](CO)NC1=O (stereo partly drawn) [Bi-LG, Biotin-PEG3-Cy(rsynkX1X2)-PEG3-Cy(rratsX1X2)] ({Biotinyl(3aR,4R,6aS)-AEEEA}-[Pra][dR][dS][dY][dN][dK][Lys(N3)][AEEEA][Pra][dR][dR][dA][dThr(3ξ)][dS][Lys(N3)]-NH2; triazole 1-7, 9-15)	slightly weaker binding	resistance to trypsin digestion; also recorded: resistant to trypsin digestion	–	–	–	–
